Among the test systems are SNB-19 CNS; DU-145 prostate; SK-MEL-2 melanoma; SF-539 CNS; SK-MEL-5 melanoma; HT29 colon; SN12C renal; HCT-15 colon; A549 NSCLC; U251 CNS.
Common to all, as to assay: NCI anticancer screen, dose series, 48 h

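Protocol summary: plate cells (96-well), add compound at 5 concentrations, incubate 48 h, interpolate endpoints linearly. GI50 is the concentration that inhibits growth by half. The concentration for full growth arrest is given as TGI.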

Turning to `FC(F)(c1ccc2ncccc2c1)c1nnc2ccc(-c3ccncc3)nn12`, the GI50 was > 100 µM with SNB-19 CNS; > 100 µM in the test with DU-145 prostate; > 100 µM with SK-MEL-2 melanoma; 46.4 µM with SF-539 CNS; 48.5 µM in the test with SK-MEL-5 melanoma; > 100 µM in the test on HT29 colon. In addition, the GI50 in the test on SN12C renal was 37.1 µM; with HCT-15 colon, 60 µM; in the test on A549 NSCLC, 76.8 µM; with U251 CNS, 95.2 µM. Besides, the TGI in the test on SNB-19 CNS, in the test with DU-145 prostate, with SK-MEL-2 melanoma, with SF-539 CNS, in the test on SK-MEL-5 melanoma and in the test with HT29 colon was > 100 µM in each case. The TGI with SN12C renal, in the test with HCT-15 colon, with A549 NSCLC and in the test on U251 CNS was > 100 µM each time.
On to `COc1ccc(C2OC(=O)c3ccc4ccccc4c32)c(C)c1` (stereo not given), for which the TGI was > 100 µM in the test with SNB-19 CNS; > 100 µM in the test with DU-145 prostate; 18.4 µM with SK-MEL-2 melanoma; 40.5 µM with SF-539 CNS; 17.6 µM in the test with SK-MEL-5 melanoma; 15.1 µM in the test with HT29 colon. Also, the TGI in the test with SN12C renal was > 100 µM; with HCT-15 colon, > 60.5 µM; in the test with A549 NSCLC it was > 100 µM; with U251 CNS, 30.6 µM.
Regarding `CC[C@H](Nc1ncnc2nc[nH]c12)c1nc2cccc(F)c2c(=O)n1-c1ccccc1`, the GI50 in the test with SNB-19 CNS is 39.3 µM; in the test on DU-145 prostate, 45.3 µM; with SK-MEL-2 melanoma, 48.4 µM; in the test with SF-539 CNS, 19.7 µM; in the test on SK-MEL-5 melanoma, 26.1 µM; in the test on HT29 colon, 30 µM. The GI50 in the test on SN12C renal is 7.4 µM; with HCT-15 colon, 37.6 µM; in the test with A549 NSCLC, 31.2 µM; in the test on U251 CNS, 51.2 µM. Further, the TGI with SNB-19 CNS, in the test with DU-145 prostate, with SK-MEL-2 melanoma, in the test with SF-539 CNS, in the test on SK-MEL-5 melanoma and with HT29 colon was > 100 µM throughout. Besides, the TGI with SN12C renal, with HCT-15 colon, in the test on A549 NSCLC and in the test on U251 CNS was > 100 µM in each case.
